Key:
[1] = biological target: T1, murine E^d MHC class II allele (Mus musculus, UniProt P01904+P01915); assay: simultaneous assay, E^d allele (A20 APC, G28.C9 T hybridoma, HEL106-116; HT-2 [3H]TdR readout); format: cell-based; set-up: The A20 and CH27 B cell lymphoma lines express H-2^d and H-2^k alleles, respectively; endogenous in cells; host or cells: A20 B cell lymphoma (mitomycin C-treated or paraformaldehyde-fixed); conditions: AE peptide 64 μM, supernatant 1:4; for Times Baseline Response, Ed: Table 3
T1 sequence (P01904 26-255): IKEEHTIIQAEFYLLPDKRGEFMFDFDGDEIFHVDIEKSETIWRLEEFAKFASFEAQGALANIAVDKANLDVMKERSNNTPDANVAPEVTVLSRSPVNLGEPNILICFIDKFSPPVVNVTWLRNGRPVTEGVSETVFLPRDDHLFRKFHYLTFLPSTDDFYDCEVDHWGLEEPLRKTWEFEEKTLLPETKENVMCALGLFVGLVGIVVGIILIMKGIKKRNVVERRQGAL
T1 sequence (P01915 27-264 limits assumed): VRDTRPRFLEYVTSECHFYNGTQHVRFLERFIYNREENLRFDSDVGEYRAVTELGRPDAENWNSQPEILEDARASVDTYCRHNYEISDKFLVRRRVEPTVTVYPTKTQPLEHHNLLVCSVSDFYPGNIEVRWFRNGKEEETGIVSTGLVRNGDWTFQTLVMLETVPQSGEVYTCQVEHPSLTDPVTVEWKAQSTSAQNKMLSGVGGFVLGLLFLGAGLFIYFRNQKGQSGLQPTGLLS
Description: (§1) Examples 1-4 (Tables 1-18) will be briefly considered in order to establish the concept of tolerance discussed above. These examples describe experimental results observed in the so-called “simultaneous” assay. In the simultaneous assay four principle components are cultured together for a 24 hour period. The components of this culture, which are added simultaneously, are: (a) an antigenic peptide characterized by the ability to bind specifically into the antigenic peptide binding groove of an MHC class II molecule, (b) mitomycin C-treated, MHC class II-positive antigen presenting cells (APC) bearing the MHC class II allele required for binding of the specific antigenic peptide, and presentation of the specific antigenic peptide to the antigenic peptide-specific T cell hybridoma, (c) an effector compound of the present invention, and (d) an MHC class II allele-restricted T cell hybridoma specific for the antigenic peptide and the MHC class II allele restricting its presentation. Following incubation of this primary culture, an aliquot of its supernatant is transferred into a second culture well for incubation with an interleukin-dependent lymphoblastoid cell line. The degree of stimulation of that second, indicator cell by the interleukins which had been released from the activated T cell hybridoma in the primary culture is measured by quantitating tritiated thymidine deoxyribose {[^3H]TdR} uptake into the DNA of the HT-2 indicator cells of that second culture.
(§2) In the “simultaneous assay” the four components of the assay are cultured together for a 24 h period. The components of this primary culture, added at the same time or simultaneously, are: (a) the antigenic peptide, (b) mitomycin C-treated, MHC class II-positive antigen presenting cells (APC) with the MHC class II allele required for binding of the specific antigenic peptide and its presentation to the antigenic peptide-specific T cell hybridoma, (c) an AE101 series effector peptide, and (d) MHC class II allele-restricted T cell hybridoma specific for the antigenic peptide and the MHC class II allele restricting its presentation. At the end of the incubation of this primary culture, an aliquot of its supernatant is transferred into a second culture well for incubation with an interleukin-dependent lymphoblastoid cell line. The degree of stimulation of that second, indicator cell by the interleukins which had been released from the activated T cell hybridoma in the primary culture is measured by quantitating tritiated thymidine deoxyribose {[^3H]TdR} uptake into the DNA of the HT-2 indicator cells of that second culture.
(§3) For these various assays, the following antigenic peptides were used: HEL11-25, hen egg lysozyme 11-25, AMKRHGLDNYRGYSL(A^d) (SEQ ID NO:5); HEL46-61, hen egg lysozyme 46-61, NTDGSTDYGILQINSR(Ak) (SEQ ID NO:6); HEL106-116, hen egg lysozyme 106-116, NAWVAWRNRCK (E^d) (SEQ ID NO:7); PGCC81-104, pigeon cytochrome c 81-104, […] (Ek) (SEQ ID NO:8), and THMCC82-103, tobacco hornworm moth cytochrome c 82-103, […] (Ek) (SEQ ID NO:9). AE101 series peptides were obtained from commercial sources. In general, the purity and composition of each peptide was confirmed by HPLC separation and mass spectrometry. The native protein antigens were HEL, hen egg lysozyme, and PGCC, pigeon cytochrome C. They were obtained from commercial sources.
(§4) For the experiments of these Examples, several T cell hybridomas, which are specific for certain antigenic peptides, were used. The TPc9.1 T hybridoma is specific for pigeon cytochrome C 81-104 peptide presented on the murine class II MHC allele E^k. The TPc9.1 hybridoma responds heteroclitically to tobacco hornworm moth cytochrome c 82-103 on E^k. The 3A9 T hybridoma is specific for hen egg lysozyme 46-61 on A^k. The 9.30.B2 hybridoma is specific for hen egg lysozyme 11-25 on A^d, and the G28.C9 hybridoma is specific for hen egg lysozyme 106-116 on E^d. […]

[2] = test system: murine E^k MHC class II allele; assay: simultaneous assay, E^k allele (CH27 APC, TPc9.1 T hybridoma, THMCC82-103 or PGCC81-104); format: cell-based; conditions: AE peptide 64 μM, supernatant 1:4; for Times Baseline Response, Ek: Table 3, values reduced relative to E^d by a factor of 10
Description: as §1, §2, §3, §4

[3] = Table 5, normalized to E^d by a factor of 10
[4] = Table 6, reduced by a factor of 5

Substance | Times Baseline Response, E^d ([1]; Table 5) | Times Baseline Response, E^k [2, 3] | Times Baseline Response, E^d ([1]; Table 6) | Times Baseline Response, E^k [2, 4] | also measured
Ac-D RMKLPK-NH2 [AE185] | – | – | – | – | Times Baseline Response, Ed [1]: 1.2; Times Baseline Response, Ek [2]: 0.9
Ac-E RMKLPK-NH2 [AE186] | – | – | – | – | Times Baseline Response, Ed [1]: 2.5; Times Baseline Response, Ek [2]: 1.3
Ac-F RMKLPK-NH2 [AE189] | – | – | – | – | Times Baseline Response, Ed [1]: 12.1; Times Baseline Response, Ek [2]: 18.2
Ac-H RMKLPK-NH2 [AE183] | – | – | – | – | Times Baseline Response, Ed [1]: 10.3; Times Baseline Response, Ek [2]: 17.3
Ac-HArg RMKLPK-NH2 [AE182] | – | – | – | – | Times Baseline Response, Ed [1]: 18.8; Times Baseline Response, Ek [2]: 26.5
Ac-K RMKLPK-NH2 [AE184] | – | – | – | – | Times Baseline Response, Ed [1]: 14.1; Times Baseline Response, Ek [2]: 11.8
Ac-LR D KLPK-NH2 [AE200] | 8.3 | 3.9 | – | – | –
Ac-LR E KLPK-NH2 [AE201] | 7.0 | 3.4 | – | – | –
Ac-LR F KLPK-NH2 [AE204] | 14.0 | 31.8 | – | – | –
Ac-LR H KLPK-NH2 [AE198] | 16.1 | 18.7 | – | – | –
Ac-LR K KLPK-NH2 [AE199] | 12.1 | 22.9 | – | – | –
Ac-LR Q KLPK-NH2 [AE203] | 14.1 | 20.5 | – | – | –
Ac-LR Y KLPK-NH2 [AE205] | 13.9 | 27.4 | – | – | –
Ac-LRM D LPK-NH2 [AE214] | – | – | 0.8 | 0.4 | –
Ac-LRM E LPK-NH2 [AE215] | – | – | 0.7 | 0.4 | –
Ac-LRM F LPK-NH2 [AE218] | – | – | 3.1 | 9.0 | –
Ac-LRM H LPK-NH2 [AE213] | – | – | 6.1 | 5.7 | –
Ac-LRM HArg LPK-NH2 [AE212] | – | – | 13.2 | 15.4 | –
Ac-LRM N LPK-NH2 [AE216] | – | – | 2.4 | 3.3 | –
Ac-LRM Q LPK-NH2 [AE217] | – | – | 4.0 | 4.4 | –
Ac-LRM Y LPK-NH2 [AE219] | – | – | 7.1 | 8.8 | –
